Source: patent publication US12018096B2, “Potent peptide inhibitors of protein aggregation” (COUNCIL OF SCIENTIFIC & INDUSTRIAL RESEARCH, priority 2017, dated 2024)
“Also recorded” adds a separate entry of the source. No end group written: not given here.

How the values were obtained:
[1] = test system: Rat phaeochromocytoma (PC12) cells; test: MTT assay with PC12 cells; type: cell-based
Protocol: MTT ((3-(4,5-Dimethylthiazol-2-yl)-2,5-diphenyltetrazolium bromide)) cell toxicity experiments were performed using Rat phaeochromocytoma (PC12) neuronal-like cells to assess toxicity of α-syn and the protective effects of the Pep.2 and CycPep.2 generated in this study. MTT assay (FIG. 5) was performed with PC12 cells incubated with α-syn fibrillation end products in presence and absence of peptides. […] However, with similar concentration of α-syn, the presence of Pep.2 and CycPep.2 improved cellular viability by 30% and >99% respectively.
MTT experiments were performed using Rat phaeochromocytoma (PC12) cells to assess cytotoxic effect of α-syn. Inhibition of PC12 cell redox activity is specific and early indicator of cell death. In MTT assay, water soluble MTT dye (3-(4, 5-dimethylthiazol-2-yl)-2,5-diphenyltetrazolium bromide) (#M2003 Sigma-Aldrich) is converted to formazan, and the conversion is monitored via absorbance measurement at 570 nm. The conversion of the MTT dye to formazan is dependent of redox status of the cell and thus the change in absorbance can be used as an indicator of the cellular viability in the assay.
PC12 cells were maintained in growth media RPMI 1640 supplemented with 10% horse serum, 5% fetal bovine serum, and antibiotics penicillin and streptomycin. […] The absorbance was measured at 570 nm using a multimode plate reader (TECAN infinite M200 PRO). […]

α-syn = molecular target: T1, α-syn (Homo sapiens, UniProt P37840); test: In vitro fibrillation assay (Thioflavin T fluorescence); type: biochemical; conditions: α-syn 400 μM, purified peptide at equimolar concentration, 37° C., 900 rpm
T1 construct: His6 (N); made in house; host or cells: E. coli Rossetta (DE3), pET29a based expression vector
Protocol: ThT is a fluorescent dye which is known to bind specifically to […] rich fibrils, and such binding further increases its fluorescence intensity. The fibrillation assay was carried out with α-syn in the presence and absence of above identified interacting phages.
The N-terminal His6-tagged human wild-type α-syn was expressed in E. coli Rossetta (DE3) (#70954 Novagen) using pET29a based expression vector. After IPTG induction bacterial cell pellets were harvested by centrifugation and resuspended in 10 mM Tris-HCl, pH 8.0, 1 mM EDTA, 1 mM Pierce protease inhibitor cocktail. […] Briefly, cell lysis was carried out by sonication, lysate was boiled at 95° C. for 30 minutes, followed by centrifugation at 10,000×g for 30 minutes at 4° C. […] Protein was quantitated using BCA protein estimation kit as per manufacturer's protocol (#23227 Thermo Scientific).
Thioflavin T (ThT) (4 mM) was added to 400 μM of purified α-syn with and without phages (10^11) or purified peptides at equimolar concentration in a 96 microwell plate. The plate was incubated at 37° C. with a shaking speed of 900 rpm in linear mode in a multimode plate reader (TECAN infinite M200 PRO). Fluorescence kinetics was measured after every 15 minutes with emission wavelength of 482 nm upon excitation at 442 nm. […]

| Substance | α-syn associated toxicity in PC12 cells (absorbance at 570 nm) ([1]; 10 μM α-syn with peptide in equimolar ratio, 24 hours) | improved cellular viability in presence of α-syn ([1]; PC12 cells, α-syn fibrillation end products with peptide in equimolar ratio, 24 h, α-syn alone gives loss of viability by about 50%) | inhibition of α-syn fibrillation (ThT fluorescence) (α-syn) |
| --- | --- | --- | --- |
| Pep.2: SEQ ID NO 2; parent peptide identified from phage display against α-syn (Ac-SACNHHHHLHCGG; not fully specified; cysteine pairing not given here) | reduced α-syn associated toxicity | 30% | – |
| Pep.2d: SEQ ID NO 1; truncated derivative of Pep.2 (HHHH; Sequence retrieved through Sequence logo) | – | – | inhibits α-syn fibrillation; also recorded: able to reduce α-syn fibrillation comparable with Pep.2 |
